Where two headings read alike, the source gives them in different places. Some results are limits rather than exact numbers.

The term IC50 denotes the midpoint of a concentration-inhibition curve. The low end stands for higher potency, the high end for lower potency. In general, EC50 refers to the concentration that produces a half-maximal response.

One assay concerns the target PI3K α (Homo sapiens (Human), UniProt P42336). Kind of assay: PI3K α kinase assay. The class given is biochemical.
A further assay concerns the target PI3K δ (Homo sapiens (Human), UniProt O00329). The experiment in a line: PI3K δ kinase assay. The class given is biochemical.
The target of another assay is mTORC (Homo sapiens (Human), UniProt P42345). The experiment in a line: mTORC in vitro IC50 (Table 2). Format: biochemical.
The next assay concerns the target PI3K γ (Homo sapiens (Human), UniProt P48736). The experiment in a line: PI3K γ kinase assay. The class given is biochemical.
Another assay concerns the target PI3K β (Homo sapiens (Human), UniProt P42338). The experiment in a line: PI3K β kinase assay. The class given is biochemical. The following applies: Table 2.
A further assay concerns PC3. The experiment in a line: PC3 tumor cell line proliferation assay. The class given is cell-based. The following applies: Homo sapiens, PC-3; for EC50: Table 1; for IC50: Table 2, in vitro IC50.

Sequence of mTORC (P42345 1360-2549): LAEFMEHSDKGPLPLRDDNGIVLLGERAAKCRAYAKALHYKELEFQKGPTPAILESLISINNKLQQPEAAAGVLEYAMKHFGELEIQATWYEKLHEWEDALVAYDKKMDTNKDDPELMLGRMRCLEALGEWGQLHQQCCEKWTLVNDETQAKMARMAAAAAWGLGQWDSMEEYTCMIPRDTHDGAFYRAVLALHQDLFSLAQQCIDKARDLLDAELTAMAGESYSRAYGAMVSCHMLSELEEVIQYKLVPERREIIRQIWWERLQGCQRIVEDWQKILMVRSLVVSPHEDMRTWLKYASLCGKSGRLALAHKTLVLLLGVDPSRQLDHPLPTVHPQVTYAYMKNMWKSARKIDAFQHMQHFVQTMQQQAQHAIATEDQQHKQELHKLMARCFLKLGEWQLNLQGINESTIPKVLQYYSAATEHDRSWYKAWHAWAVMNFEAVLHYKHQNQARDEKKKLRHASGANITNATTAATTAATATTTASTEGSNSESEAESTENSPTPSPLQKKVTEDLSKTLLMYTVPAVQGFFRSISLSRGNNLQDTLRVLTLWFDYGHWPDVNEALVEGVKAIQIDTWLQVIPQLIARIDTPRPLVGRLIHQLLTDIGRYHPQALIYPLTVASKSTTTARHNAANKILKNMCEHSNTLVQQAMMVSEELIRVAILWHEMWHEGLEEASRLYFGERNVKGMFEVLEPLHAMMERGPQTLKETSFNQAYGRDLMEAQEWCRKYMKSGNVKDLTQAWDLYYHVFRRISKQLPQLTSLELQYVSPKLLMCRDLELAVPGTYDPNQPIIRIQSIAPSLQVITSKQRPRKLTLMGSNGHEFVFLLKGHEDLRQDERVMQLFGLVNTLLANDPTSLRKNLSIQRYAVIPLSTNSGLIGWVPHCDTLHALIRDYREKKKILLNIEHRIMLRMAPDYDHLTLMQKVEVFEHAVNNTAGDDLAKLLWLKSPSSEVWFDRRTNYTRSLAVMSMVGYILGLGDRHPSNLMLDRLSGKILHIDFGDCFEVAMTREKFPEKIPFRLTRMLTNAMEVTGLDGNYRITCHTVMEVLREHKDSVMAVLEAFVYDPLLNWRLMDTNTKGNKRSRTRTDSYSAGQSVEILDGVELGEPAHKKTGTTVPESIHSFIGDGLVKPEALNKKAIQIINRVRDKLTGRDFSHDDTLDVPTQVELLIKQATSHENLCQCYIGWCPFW
Sequence of PI3K α (P42336 whole entry): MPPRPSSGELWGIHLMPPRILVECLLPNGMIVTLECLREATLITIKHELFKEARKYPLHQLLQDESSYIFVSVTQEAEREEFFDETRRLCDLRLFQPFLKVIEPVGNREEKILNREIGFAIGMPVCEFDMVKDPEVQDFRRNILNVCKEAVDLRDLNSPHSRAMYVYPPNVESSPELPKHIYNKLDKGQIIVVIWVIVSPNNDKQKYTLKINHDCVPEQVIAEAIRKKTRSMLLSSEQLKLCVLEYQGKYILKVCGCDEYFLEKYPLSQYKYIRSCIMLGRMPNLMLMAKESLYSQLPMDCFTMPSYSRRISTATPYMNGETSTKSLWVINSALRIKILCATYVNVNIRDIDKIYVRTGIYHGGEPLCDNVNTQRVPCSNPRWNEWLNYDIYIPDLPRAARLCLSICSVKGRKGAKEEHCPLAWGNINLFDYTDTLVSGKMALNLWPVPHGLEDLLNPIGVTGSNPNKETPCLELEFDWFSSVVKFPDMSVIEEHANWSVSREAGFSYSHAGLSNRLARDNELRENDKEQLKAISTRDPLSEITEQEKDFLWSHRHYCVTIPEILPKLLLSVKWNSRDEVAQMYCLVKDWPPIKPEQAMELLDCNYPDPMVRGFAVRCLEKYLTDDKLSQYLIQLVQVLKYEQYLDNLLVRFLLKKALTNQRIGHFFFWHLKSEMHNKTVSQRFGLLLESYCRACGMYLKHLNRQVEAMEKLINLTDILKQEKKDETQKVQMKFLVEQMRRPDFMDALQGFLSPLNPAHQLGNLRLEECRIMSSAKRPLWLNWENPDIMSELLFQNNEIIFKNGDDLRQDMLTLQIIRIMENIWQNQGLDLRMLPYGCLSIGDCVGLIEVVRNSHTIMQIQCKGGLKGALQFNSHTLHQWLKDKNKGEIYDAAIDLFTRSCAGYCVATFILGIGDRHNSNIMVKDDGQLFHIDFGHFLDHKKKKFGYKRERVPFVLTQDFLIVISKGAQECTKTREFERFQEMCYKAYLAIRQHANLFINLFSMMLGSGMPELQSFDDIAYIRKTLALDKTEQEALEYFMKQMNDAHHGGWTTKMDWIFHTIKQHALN
Sequence of PI3K α (P27986 whole entry partner): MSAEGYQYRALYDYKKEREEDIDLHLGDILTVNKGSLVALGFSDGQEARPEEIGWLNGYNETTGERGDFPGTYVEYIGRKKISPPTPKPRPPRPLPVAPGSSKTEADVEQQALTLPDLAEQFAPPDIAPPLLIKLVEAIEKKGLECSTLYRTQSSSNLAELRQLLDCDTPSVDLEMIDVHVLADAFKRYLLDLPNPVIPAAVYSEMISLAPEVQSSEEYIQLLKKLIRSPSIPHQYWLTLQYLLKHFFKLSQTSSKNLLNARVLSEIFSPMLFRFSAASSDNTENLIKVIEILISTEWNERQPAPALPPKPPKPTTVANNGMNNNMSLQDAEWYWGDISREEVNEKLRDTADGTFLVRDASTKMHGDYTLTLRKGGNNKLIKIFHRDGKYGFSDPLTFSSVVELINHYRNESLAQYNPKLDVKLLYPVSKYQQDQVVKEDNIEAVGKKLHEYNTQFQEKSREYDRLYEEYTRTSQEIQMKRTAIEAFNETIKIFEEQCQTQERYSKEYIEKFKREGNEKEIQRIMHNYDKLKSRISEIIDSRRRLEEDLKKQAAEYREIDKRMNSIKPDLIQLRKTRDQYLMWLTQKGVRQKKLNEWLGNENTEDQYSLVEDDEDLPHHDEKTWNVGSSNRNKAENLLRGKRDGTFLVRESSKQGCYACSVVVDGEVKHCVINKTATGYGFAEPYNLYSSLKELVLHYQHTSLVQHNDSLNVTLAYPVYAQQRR
Sequence of PI3K δ (O00329 whole entry, species assumed): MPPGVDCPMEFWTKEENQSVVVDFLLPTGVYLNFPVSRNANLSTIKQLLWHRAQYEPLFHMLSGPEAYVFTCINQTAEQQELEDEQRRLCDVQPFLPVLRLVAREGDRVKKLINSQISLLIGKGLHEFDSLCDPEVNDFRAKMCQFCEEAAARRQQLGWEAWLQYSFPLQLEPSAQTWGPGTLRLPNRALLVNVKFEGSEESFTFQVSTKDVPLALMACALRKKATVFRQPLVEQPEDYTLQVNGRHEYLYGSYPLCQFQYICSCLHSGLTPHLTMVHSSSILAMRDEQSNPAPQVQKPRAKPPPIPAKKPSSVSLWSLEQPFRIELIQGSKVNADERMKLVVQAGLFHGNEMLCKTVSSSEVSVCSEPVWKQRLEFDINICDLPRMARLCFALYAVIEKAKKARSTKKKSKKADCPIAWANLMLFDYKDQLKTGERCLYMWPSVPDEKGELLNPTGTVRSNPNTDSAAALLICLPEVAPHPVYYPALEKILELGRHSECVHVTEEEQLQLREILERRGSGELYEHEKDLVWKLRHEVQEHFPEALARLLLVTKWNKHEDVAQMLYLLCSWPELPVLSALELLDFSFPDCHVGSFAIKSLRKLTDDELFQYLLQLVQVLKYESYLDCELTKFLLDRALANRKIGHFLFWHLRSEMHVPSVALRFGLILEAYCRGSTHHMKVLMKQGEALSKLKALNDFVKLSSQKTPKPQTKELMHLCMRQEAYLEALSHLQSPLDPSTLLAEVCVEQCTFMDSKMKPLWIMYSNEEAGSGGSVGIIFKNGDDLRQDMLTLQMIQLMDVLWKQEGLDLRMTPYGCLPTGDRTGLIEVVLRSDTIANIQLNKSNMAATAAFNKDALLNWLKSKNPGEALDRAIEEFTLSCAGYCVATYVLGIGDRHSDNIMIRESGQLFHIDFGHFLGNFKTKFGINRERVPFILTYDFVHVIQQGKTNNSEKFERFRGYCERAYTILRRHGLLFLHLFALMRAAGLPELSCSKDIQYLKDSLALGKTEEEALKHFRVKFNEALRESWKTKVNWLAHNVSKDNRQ
Sequence of PI3K δ (P27986 whole entry partner, species assumed): as the sequence (P27986 whole entry partner) above
Description for PC3: The assay is performed in a 96 well microtiter plate using Alamar Blue reduction. […] A compound disclosed herein is diluted in Tumor Cell Media and added in a 10 ul volume. […] A volume of 10 uL of Alamar Blue reagent is added to each well and plates are incubated for 3 hours at 37 C and 5% CO2. Alamar Blue fluoresce is read at 560Ex/590Em, and IC50 values are calculated using GraphPad Prism 5.
Description for mTORC: The compounds described herein and any other mTor inhibitors known in the art can be tested against recombinant mTOR (Invitrogen) in an assay containing 50 mM HEPES, pH 7.5, 1 mM EGTA, 10 mM MgCl2, 2.5 mM, 0.01% Tween, 10 μM ATP (2.5 μCi of μ-32P-ATP), and 3 μg/mL BSA. Rat recombinant PHAS-1/4EBP1 (Calbiochem; 2 mg/mL) is used as a substrate. Reactions are terminated by spotting onto nitrocellulose, which is washed with 1M NaCl/1% phosphoric acid (approximately 6 times, 5-10 minutes each). Sheets are dried and the transferred radioactivity quantitated by phosphorimaging.
For instance, one can use Invitrogen's LanthaScreen™ Kinase assay to test the inhibitors of mTOR disclosed herein. This assay is a time resolved FRET platform that measures the phosphorylation of GFP labeled 4EBP1 by mTOR kinase. The kinase reaction is performed in a white 384 well microtitre plate. The total reaction volume is 20 ul per well and the reaction buffer composition is 50 mM HEPES pH7.5, 0.01% Polysorbate 20, 1 mM EGTA, 10 mM MnCl2, and 2 mM DTT. In the first step, each well receives 2 ul of test compound in 20% dimethylsulphoxide resulting in a 2% DMSO final concentration. Next, 8 ul of mTOR diluted in reaction buffer is added per well for a 60 ng/ml final concentration. To start the reaction, 10 ul of an ATP/GFP-4EBP1 mixture (diluted in reaction buffer) is added per well for a final concentration of 10 μM ATP and 0.5 μM GFP-4EBP1. The plate is sealed and incubated for 1 hour at room temperature. […] The plate is sealed, incubated for 1 hour at room temperature, and then read on a plate reader set up for LanthaScreen™ TR-FRET. Data is analyzed and IC50s are generated using GraphPad Prism 5.

Consider `CC(=O)N1CCC(n2nc(-c3cc4cc(O)cc(Cl)c4[nH]3)c3c(N)ncnc32)CC1` [Compound 70], for which the IC50 on PI3K α (Table 2) is less than 500 nM; against PI3K δ (Table 2), less than 25 nM; against mTORC, less than 5 nM; against PI3K γ (Table 2), less than 100 nM; against PI3K β, more than 500 nM.

Regarding `Nc1nc2cc(-c3cn(C4CCOCC4)c4ncnc(N)c34)ccc2o1` [Compound 9], the EC50 in the assay on PC3 is less than 100 nM.

`COc1ccc2cc(-c3nn(C(C)C)c4ncnc(N)c34)[nH]c2c1` [Compound 8] showed an IC50 with PC3 of more than 500 nM.

With `CC(C)n1nc(-c2ccc3nc(N)oc3c2)c2c(N)ncnc21` [Compound 4], the EC50 in the assay with PC3 was less than 10000 nM.

With `CC(=O)N1CCC(n2nc(-c3ccc4oc(N)nc4c3)c3c(N)ncnc32)CC1` [Compound 7], the concentration for a half-maximal effect (EC50) in the assay on PC3 was less than 10000 nM.

As for `CN1CCN(C2CCC(n3nc(-c4cc5cc(O)ccc5[nH]4)c4c(N)ncnc43)CC2)CC1` (stereo not drawn) [Compound 58], the IC50 on PI3K α, on mTORC, against PI3K γ (Table 2) and at PI3K β was more than 500 nM each time.

Take `CC(C)n1cc(-c2ccc3oc(N)nc3c2)c2c(N)ncnc21` [Compound 8]: the EC50 in the assay with PC3 was less than 100 nM.

Regarding `COc1ccc2cc(-c3nn(C4CCOCC4)c4ncnc(N)c34)[nH]c2c1` [Compound 59], the IC50 against PI3K α (Table 2), on mTORC, against PI3K γ (Table 2) and against PI3K β was more than 500 nM in each case.

`Nc1ncnc2c1c(-c1cc3cc(O)ccc3[nH]1)nn2C1CCCCC1` [Compound 26] yielded an IC50 in the assay with PC3 of less than 500 nM.

With `Nc1ncnc2c1c(-c1cc3cc(O)ccc3[nH]1)nn2C1CCC(N2CCOCC2)CC1` (stereo not drawn) [Compound 57], the IC50 was more than 500 nM against PI3K α (Table 2), less than 25 nM at mTORC, more than 500 nM against PI3K γ (Table 2) and more than 500 nM against PI3K β.

In the assay with PC3, `Nc1nc2cc(-c3nn(C4CCC(N5CCOCC5)CC4)c4ncnc(N)c34)ccc2o1` (stereo not drawn) [Compound 6] yielded an EC50 of less than 1000 nM.

With `Nc1ncnc2c1c(-c1cc3cccc(O)c3[nH]1)nn2C1CCCC1` [Compound 36], the IC50 against PI3K α (Table 2) is more than 500 nM; in the assay on PC3 it was less than 100 nM; against PI3K δ (Table 2), less than 500 nM; at mTORC it was less than 10 nM; at PI3K γ (Table 2), less than 100 nM.

With `CC(C)n1nc(-c2cc3ccccc3n2C)c2c(N)ncnc21` [Compound 6], the IC50 in the assay on PC3 was more than 500 nM.

For the compound `CC(C)n1nc(-c2cc3c(O)cccc3[nH]2)c2c(N)ncnc21` [Compound 37], the IC50 against PI3K α (Table 2) was less than 500 nM; against PI3K δ (Table 2) it was less than 500 nM; on mTORC, more than 500 nM; on PI3K γ (Table 2), less than 500 nM.

Compound `CC(C)n1nc(-c2cc3cc(Cl)ccc3[nH]2)c2c(N)ncnc21` [Compound 17] showed an IC50 in the assay with PC3 of more than 500 nM.

Compound `CC(C)n1nc(-c2cc3cc(O)ccc3[nH]2)c2c(N)nccc21` [Compound 45] returned a 50% inhibitory concentration (IC50) on mTORC of more than 500 nM.

Consider `CC(=O)Nc1nc2cc(-c3nn(C(C)C)c4ncnc(N)c34)ccc2o1` [Compound 2], for which, in the assay on PC3, the EC50 was less than 1000 nM.

On to `CC(C)n1nc(-c2cc3cccc(O)c3[nH]2)c2c(N)ncnc21` [Compound 11], for which the IC50 in the assay on PC3 is less than 50 nM.

`CC(C)n1nc(-c2cc3ccc(C(N)=O)cc3[nH]2)c2c(N)ncnc21` [Compound 25] yielded an IC50 in the assay with PC3 of more than 500 nM.

For the compound `CC(C)N1CCC(n2nc(-c3cc4cc(O)ccc4[nH]3)c3c(N)ncnc32)CC1` [Compound 55], the IC50 against PI3K α (Table 2) is more than 500 nM; on mTORC, less than 500 nM; at PI3K γ (Table 2), more than 500 nM; on PI3K β, more than 500 nM.

For `Nc1nc2cc(-c3nn(C4CCOCC4)c4ncnc(N)c34)ccc2o1` [Compound 5], in the assay on PC3, the EC50 is less than 100 nM.

On to `Nc1ncnc2c1c(-c1cc3cc(O)ccc3[nH]1)nn2CCN1CCOCC1` [Compound 33], for which the IC50 is more than 500 nM on PI3K α (Table 2); more than 500 nM in the assay on PC3; more than 500 nM against PI3K δ (Table 2); less than 500 nM against mTORC; more than 500 nM against PI3K γ (Table 2).

As for `CC(C)n1nc(-c2cc3cc(O)c(Cl)cc3[nH]2)c2c(N)ncnc21` [Compound 32], the IC50 is more than 500 nM against PI3K α; more than 500 nM with PC3; more than 500 nM on PI3K δ (Table 2); less than 500 nM at mTORC; more than 500 nM at PI3K γ (Table 2).

`CC(C)n1nc(-c2cc3c(Cl)cccc3[nH]2)c2c(N)ncnc21` [Compound 9] registered an IC50 with PC3 of more than 500 nM.

Consider `Nc1ncnc2c1c(-c1cc3cc(O)ccc3[nH]1)nn2C1CCOCC1` [Compound 42], for which the IC50 at PI3K α is more than 500 nM; in the assay with PC3 it was more than 500 nM; against PI3K δ (Table 2), less than 100 nM; against mTORC it was less than 5 nM; against PI3K β it was more than 500 nM.

With `COc1cc(Cl)c2[nH]c(-c3nn(C(C)C)c4ncnc(N)c34)cc2c1` [Compound 13], the IC50 with PC3 was more than 500 nM.

For `Nc1ncnc2c1c(-c1cc3cc(O)ccc3[nH]1)nn2C1CC(O)C1` (stereo not drawn) [Compound 54], the IC50 against PI3K α (Table 2) is more than 500 nM; against mTORC, less than 25 nM; at PI3K γ (Table 2), more than 500 nM; against PI3K β, more than 500 nM.

Consider `CC(C)n1nc(-c2cc3ccc(O)cc3[nH]2)c2c(N)ncnc21` [Compound 21], for which the half-maximal inhibitory concentration (IC50) with PC3 was more than 500 nM.

As for `CC(C)n1nc(-c2cc3cc(O)cc(Cl)c3[nH]2)c2c(N)ncnc21` [Compound 15], in the assay with PC3, the IC50 is less than 50 nM.

As for `CNC(=O)CCn1nc(-c2cc3cc(O)ccc3[nH]2)c2c(N)ncnc21` [Compound 43], the IC50 on PI3K α (Table 2), against PI3K δ (Table 2), at mTORC and against PI3K β was more than 500 nM throughout.

On to `CC(C)N1CCC(n2nc(-c3cc4cc(O)cc(Cl)c4[nH]3)c3c(N)ncnc32)CC1` [Compound 56], for which the IC50 against PI3K α (Table 2), at mTORC, at PI3K γ (Table 2) and at PI3K β was more than 500 nM throughout.

Regarding `Nc1ncnc2c1c(-c1cc3cc(O)ccc3[nH]1)nn2C1CC(=O)C1` [Compound 53], the half-maximal inhibitory concentration (IC50) was more than 500 nM against PI3K α (Table 2), less than 100 nM at mTORC, more than 500 nM against PI3K γ (Table 2) and more than 500 nM on PI3K β.

In turn, `CC(C)n1nc(-c2ccc3c(N)noc3c2)c2c(N)ncnc21` [Compound 12] had an EC50 with PC3 of more than 10000 nM.

`Nc1ncnc2c1c(-c1cc3cc(O)ccc3[nH]1)nn2Cc1cccnc1` [Compound 38]: the IC50 at PI3K α (Table 2) was more than 500 nM; with PC3, more than 500 nM; against PI3K δ (Table 2), more than 500 nM; at mTORC it was less than 500 nM; at PI3K γ, more than 500 nM.

As to `CNC(=O)Cn1nc(-c2cc3cc(O)ccc3[nH]2)c2c(N)ncnc21` [Compound 35], the 50% inhibitory concentration (IC50) against PI3K α (Table 2), at PI3K δ (Table 2), against mTORC and against PI3K γ (Table 2) was more than 500 nM in each case.

Compound `CC(C)n1nc(-c2ccc3onc(N)c3c2)c2c(N)ncnc21` [Compound 10] registered an EC50 in the assay with PC3 of more than 10000 nM.

For the compound `CC(C)n1nc(-c2cc3c(Cl)ccc(O)c3[nH]2)c2c(N)ncnc21` [Compound 39], the IC50 against PI3K α (Table 2) is more than 500 nM; in the assay with PC3 it was more than 500 nM; at PI3K δ (Table 2), more than 500 nM; at mTORC, less than 10 nM; on PI3K γ (Table 2) it was more than 500 nM.

Take `Nc1ncnc2c1c(-c1cc3cc(O)ccc3[nH]1)nn2CC(=O)N1CCOCC1` [Compound 34]: the IC50 against PI3K α (Table 2), at PI3K δ (Table 2), on mTORC and on PI3K γ (Table 2) was more than 500 nM each time.

Turning to `Cc1nccn1CCn1nc(-c2cc3cc(O)ccc3[nH]2)c2c(N)ncnc21` [Compound 44], the IC50 against PI3K α (Table 2) was more than 500 nM; on PI3K δ it was more than 500 nM; against mTORC, less than 100 nM; at PI3K β, more than 500 nM.

As for `Nc1ncnc2c1c(-c1cc3cc(O)ccc3[nH]1)nn2C1CCN(C(=O)C2CC2)CC1` [Compound 31], the IC50 on PI3K α is more than 500 nM; in the assay with PC3, more than 500 nM; against PI3K δ (Table 2), less than 500 nM; on mTORC it was less than 25 nM; on PI3K β it was more than 500 nM.

With `CC(C)n1nc(-c2cc3cc(O)cc(F)c3[nH]2)c2c(N)ncnc21` [Compound 16], in the assay on PC3, the IC50 is less than 500 nM.

As to `COCCn1nc(-c2cc3cc(O)ccc3[nH]2)c2c(N)ncnc21` [Compound 40], the IC50 on PI3K α (Table 2) is more than 500 nM; with PC3, more than 500 nM; on PI3K δ it was more than 500 nM; against mTORC it was less than 100 nM; against PI3K γ (Table 2), more than 500 nM.

As to `Nc1ncnc2c1c(-c1cc3ccc(O)cc3[nH]1)nn2C1CCOCC1` [Compound 60], the IC50 was more than 500 nM against PI3K α (Table 2), less than 100 nM on mTORC, less than 100 nM against PI3K γ (Table 2) and more than 500 nM against PI3K β.

As to `CCOC(=O)Cn1nc(-c2cc3cc(O)ccc3[nH]2)c2c(N)ncnc21` [Compound 28], the IC50 at PI3K α (Table 2) was more than 500 nM; in the assay with PC3, more than 500 nM; against PI3K δ (Table 2), more than 500 nM; at mTORC it was less than 500 nM; against PI3K β, more than 500 nM.

For the compound `Nc1ncnc2c1c(-c1cc3cc(O)ccc3[nH]1)nn2C1CCCC1` [Compound 12], in the assay on PC3, the IC50 is less than 50 nM.

In the assay on PC3, `COc1ccc2[nH]c(-c3nn(C(C)C)c4ncnc(N)c34)cc2c1` [Compound 5] had an IC50 of more than 500 nM.

As for `Nc1ncnc2c1c(-c1cc3cc(O)ccc3[nH]1)nn2C1CCC1` [Compound 27], in the assay on PC3, the IC50 was less than 500 nM.

On to `CC(C)n1nc(-c2cc3ccc(C#N)cc3[nH]2)c2c(N)ncnc21` [Compound 24], for which, in the assay with PC3, the IC50 was more than 500 nM.

`CC(=O)N1CCC(n2nc(-c3cc4cc(O)ccc4[nH]3)c3c(N)ncnc32)CC1` [Compound 30]: the concentration for half-maximal inhibition (IC50) against PI3K α was more than 500 nM; in the assay with PC3, more than 500 nM; against PI3K δ (Table 2), more than 500 nM; on mTORC, less than 25 nM; at PI3K β, more than 500 nM.

Regarding `CC(C)n1nc(-c2cc3ccccc3[nH]2)c2c(N)ncnc21` [Compound 7], the IC50 in the assay on PC3 is more than 500 nM.

Consider `COc1cc2cc(-c3nn(C(C)C)c4ncnc(N)c34)[nH]c2cc1Cl` [Compound 29], for which the IC50 against mTORC is more than 500 nM.

On to `CC(=O)Nc1noc2cc(-c3nn(C(C)C)c4ncnc(N)c34)ccc12` [Compound 11], for which the EC50 with PC3 is more than 10000 nM.

The values above are taken from patent US10172858B2, “Combination pharmaceutical compositions and uses thereof” (Intellikine LLC, priority 2011, dated 2019).
